Results taken from US20250388495A1, “WATER SA[…], SYSTEM AND METHOD” (WATERCO LIMITED, priority 2020, published 2025).

Experiments:
[1] = Monitoring of H2O2 and ClO2 levels in the test tank during the efficacy test; assay type: physicochemical
Description: An apparatus was set up to simulate swimming pool conditions and followed the Australian Pesticides and Veterinary Medicines Authority (APMVA) guidelines. A water tank filled with 180 litres of water recirculates via an ECO 100 pump (Waterco) set at low speed. A Hydrochlor® head unit (Waterco) is connected to a 13-plate low salt cell which is set to run at 100% during the test. A Digiheat unit (Waterco) is set up to control temperature during the tests. A FlowVis® valve (Waterco) was used to estimate flow rate through the apparatus. […] A Kemio™ test kit (Palintest) was used to monitor chlorine dioxide levels. A WDPHRH PER Swimming Pool controller was used to monitor pH and oxidation-reduction potential (ORP) during the tests.

[2] = Field trials: stability of chlorine dioxide in water with hydrogen peroxide; assay type: physicochemical
Description: For example, field trials indicate that chlorine dioxide will last in water up to 5 times longer when used in conjunction with hydrogen peroxide.
The process allows chlorine dioxide to remain active in water for up to and beyond 5 days.

[3] = produced by electrolysis with hydrogen peroxide present

SMILES | effect of the spike of pathogens on the level of the sanitiser [1] | effect of ultraviolet light on chlorine dioxide residual in the water [2, 3] | time chlorine dioxide remains active in water [2, 3] | effect of agitation on chlorine dioxide levels ([2]; used in conjunction with hydrogen peroxide) | how much longer chlorine dioxide will last in water ([2]; used in conjunction with hydrogen peroxide, field trials)
OO [Hydrogen peroxide] | minimal | – | – | – | –
[O][Cl+][O-] [chlorine dioxide] | dramatically affected | does not diminish | ≥ 5 days | not affected by agitation | up to 5 times longer
